Where two headings read alike, the source gives them in different places.
Experiments:
[1] = tested on: A549; assay: Cytotoxicity assay (propidium iodide), A549; type: cell-based; conditions: A549 (C1a, lung), 48 hours
Description: (§4) Cells from cell lines as mentioned in the table given below were seeded at a density of 3000 cells/well in a white opaque 96-well plate. Following incubation at 37° C./5% CO2 for a period of 18-24 hours, the cells were treated with various concentrations (stock solution was prepared in DMSO and subsequent dilutions were made in media as per ATCC guidelines) of the representative compounds of present invention (refer table 3) for a period of 48 hours. At the end of treatment, the spent culture medium was discarded, the cells were washed with 1×PBS and 200 μl of 7 μg/ml propidium iodide was added to each well. The plates were frozen at −70° C. for at least 24 hours. For analysis, the plates were brought to RT, allowed to thaw and were read in PolarStar fluorimeter with the fluorescence setting. The percentage of viable cells in the non treated set of wells was considered to be 100 and the percentage viability following treatment was calculated accordingly. IC50 values were calculated from graphs plotted using these percentages.

[2] = tested on: H460; assay: Cytotoxicity assay (propidium iodide), H460; type: cell-based; conditions: H460 (C1b, lung), 48 hours
Description: as §4

[3] = tested on: A2780; assay: Cytotoxicity assay (propidium iodide), A2780; type: cell-based; conditions: A2780 (C3a, ovarian), 48 hours
Description: as §4

[4] = tested on: HT29; assay: Cytotoxicity assay (propidium iodide), HT29; type: cell-based; conditions: HT29 (C4a, colon); 48 hours
Description: as §4

[5] = tested on: MDA MB 231; assay: Cytotoxicity assay (propidium iodide), MDA MB 231; type: cell-based; conditions: MDA MB 231 (C6a, breast); 48 hours
Description: as §4

[6] = target: STAT3; assay: STAT3 bioassay (Hela Stat3-luc, luciferase); type: cell-based; conditions: Oncostatin M induction
How it was run: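 Hela Stat3-luc cells (20,000/well, 24 h) pretreated with compound 1 h, then induced with 100 ng/ml final Oncostatin M for 7-8 h at 37 °C. Luciferase luminescence after lysis; percent inhibition versus induction control, IC50 from these percentages.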

[7] = tested on: IL-6; assay: Human monocyte assay, LPS-stimulated IL-6; type: cell-based; conditions: human monocytes, 1 μg/ml LPS, 5 hours
How it was run: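 Adherent human PBMC-derived monocytes (2×10^4/well) were cultured 48 h, preincubated 30 min with compound or 0.5% DMSO, then stimulated with 1 μg/ml E. coli LPS for 5 h at 37° C. TNF-α and IL-6 in supernatants were measured by ELISA.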

[8] = tested on: PC3
[9] = tested on: MDA MB 468; assay: Cytotoxicity assay (propidium iodide), MDA MB 468; type: cell-based; conditions: Homo sapiens; MDA MB 468 (C6b, breast); 48 hours
Description: as §4

[10] = tested on: BT 549; assay: Cytotoxicity assay (propidium iodide), BT 549; type: cell-based; conditions: Homo sapiens; BT 549 (C6d, breast); 48 hours
Description: as §4

[11] = tested on: IL-6; assay: Synovial tissue assay, IL-6; type: cell-based; conditions: Homo sapiens; synovial tissue cells from rheumatoid arthritis patients, 16 hours
Description: (§1) The assay was designed as in the reference, Lancet, 2(8657), 244-7, Jul.
(§2) Stock Solution: Compounds of the present invention were dissolved in DMSO to obtain a stock solution of 20 mM.
(§3) Synovial tissue was obtained from rheumatoid arthritis patients undergoing knee replacement surgery. The tissue was minced into small pieces and digested in RPMI medium containing 100 U/ml penicillin-G, 100 μg/ml streptomycin, 50 ng/ml amphotericin B (GIBCO; USA), 1.33 mg/ml collagenase Type I (Worthington Biochemical Corporation, New Jersey), 0.5 μg/ml DNAse Type I (Sigma Aldrich; St. Louis, Mo.) and 8.33 U/ml heparin (Biological E. Limited, India) for 3 hours at 37° C., 5% CO2. The digested tissue was filtered through a membrane (mesh size 70 micron; Sigma Aldrich). Subsequently, the cells were washed 3 times and resuspended in complete medium (RPMI supplemented with 5% FBS and 5% human serum-AB+) at a concentration of 1×10^6 cells/ml. All cell washes in this assay were performed using Rosewall Park Memorial Institute (RPMI)-1640 medium (JRH; Australia). For the experiment, 100 μl of cell suspension was added to the wells of a 96-well culture plate. Following cell plating, 100 μl of the culture medium and 1 μl of various concentrations (0.01, 0.03, 0.1, 0.3, 1, 3, 10, 30 and 100 μM) of the compounds of present invention dissolved in DMSO were added to the cells. The final concentration of DMSO was adjusted to 0.5%. For experimental purposes, 1 μl of […] concentrated solution of the compounds of present invention were dissolved in 200 μl cell suspension to achieve a final concentration of 0.01, 0.03, 0.1, 0.3, 1, 3, 10, 30 and 100 μM. The vehicle (0.5% DMSO) was used as control. 10 μM dexamethasone (Sigma Aldrich) or 1 μM 7-hydroxyfluorinide (7HF) were used as standards for the experiments. The plates were incubated for 16 hours at 37° C., 5% CO2. Subsequently, the supernatants were harvested and stored at −70° C. The amounts of TNF-α, IL-6 and interleukin-8 (IL-8) in the supernatants were assayed using OptiEIA ELISA sets, (BD BioSciences Pharmingen). The protocol followed was as per manufacturers instructions. […] The cytotoxicity of test compounds in synovial cells was assessed by MTS assay. Absorbance was measured at 490 nm. Percent cytotoxicity was calculated by the equation: % Cytotoxicity=(A−B)/A×100 where, A is the absorbance of cells treated with DMSO alone and B is the absorbance of cells treated with the test article.

[12] = tested on: TNF-α; assay: Synovial tissue assay, TNF-α; type: cell-based; conditions: Homo sapiens; synovial tissue cells from rheumatoid arthritis patients, 16 hours
Description: as §1, §2, §3

[13] = tested on: IL-8; assay: Synovial tissue assay, IL-8; type: cell-based; conditions: Homo sapiens; synovial tissue cells from rheumatoid arthritis patients, 16 hours
Description: as §1, §2, §3

[14] = tested on: PC3; assay: Cytotoxicity assay (propidium iodide), PC3; conditions: Homo sapiens, PC-3, 48 h, read-out: IC50 cytotoxicity
[15] = target: T1, PI3Kα kinase (Homo sapiens, UniProt P42336); assay: Kinase assay (PI3Kα); type: biochemical; conditions: read-out: IC50 (μM) for PI3K inhibition
T1 construct: purchased Millipore, USA
T1 sequence (P42336 whole entry): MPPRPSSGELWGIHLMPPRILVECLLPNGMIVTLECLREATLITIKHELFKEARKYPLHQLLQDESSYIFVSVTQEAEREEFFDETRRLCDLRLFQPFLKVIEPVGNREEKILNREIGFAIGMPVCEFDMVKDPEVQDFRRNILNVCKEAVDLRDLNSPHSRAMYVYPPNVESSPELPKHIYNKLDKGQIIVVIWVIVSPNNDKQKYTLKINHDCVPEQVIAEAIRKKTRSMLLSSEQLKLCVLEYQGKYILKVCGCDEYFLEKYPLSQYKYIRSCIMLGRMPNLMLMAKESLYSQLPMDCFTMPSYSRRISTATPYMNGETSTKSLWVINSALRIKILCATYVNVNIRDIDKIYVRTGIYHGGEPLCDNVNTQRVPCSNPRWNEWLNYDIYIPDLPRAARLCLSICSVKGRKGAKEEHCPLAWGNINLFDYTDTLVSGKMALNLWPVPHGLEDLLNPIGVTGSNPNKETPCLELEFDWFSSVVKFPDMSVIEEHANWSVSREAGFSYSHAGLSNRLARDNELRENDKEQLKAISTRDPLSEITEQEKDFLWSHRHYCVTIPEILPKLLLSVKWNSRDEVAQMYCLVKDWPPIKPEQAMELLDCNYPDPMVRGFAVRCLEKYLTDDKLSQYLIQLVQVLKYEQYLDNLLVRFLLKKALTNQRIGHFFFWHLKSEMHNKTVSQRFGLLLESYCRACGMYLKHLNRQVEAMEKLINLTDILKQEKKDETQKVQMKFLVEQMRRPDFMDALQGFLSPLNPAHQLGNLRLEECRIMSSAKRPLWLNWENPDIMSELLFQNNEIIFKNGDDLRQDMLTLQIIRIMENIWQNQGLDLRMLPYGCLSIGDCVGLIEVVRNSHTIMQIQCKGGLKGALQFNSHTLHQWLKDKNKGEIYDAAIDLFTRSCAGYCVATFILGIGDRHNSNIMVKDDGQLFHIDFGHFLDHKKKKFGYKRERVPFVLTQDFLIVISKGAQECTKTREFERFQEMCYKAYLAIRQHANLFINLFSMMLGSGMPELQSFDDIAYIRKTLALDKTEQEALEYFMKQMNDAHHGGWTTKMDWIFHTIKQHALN
T1 sequence (P27986 whole entry partner): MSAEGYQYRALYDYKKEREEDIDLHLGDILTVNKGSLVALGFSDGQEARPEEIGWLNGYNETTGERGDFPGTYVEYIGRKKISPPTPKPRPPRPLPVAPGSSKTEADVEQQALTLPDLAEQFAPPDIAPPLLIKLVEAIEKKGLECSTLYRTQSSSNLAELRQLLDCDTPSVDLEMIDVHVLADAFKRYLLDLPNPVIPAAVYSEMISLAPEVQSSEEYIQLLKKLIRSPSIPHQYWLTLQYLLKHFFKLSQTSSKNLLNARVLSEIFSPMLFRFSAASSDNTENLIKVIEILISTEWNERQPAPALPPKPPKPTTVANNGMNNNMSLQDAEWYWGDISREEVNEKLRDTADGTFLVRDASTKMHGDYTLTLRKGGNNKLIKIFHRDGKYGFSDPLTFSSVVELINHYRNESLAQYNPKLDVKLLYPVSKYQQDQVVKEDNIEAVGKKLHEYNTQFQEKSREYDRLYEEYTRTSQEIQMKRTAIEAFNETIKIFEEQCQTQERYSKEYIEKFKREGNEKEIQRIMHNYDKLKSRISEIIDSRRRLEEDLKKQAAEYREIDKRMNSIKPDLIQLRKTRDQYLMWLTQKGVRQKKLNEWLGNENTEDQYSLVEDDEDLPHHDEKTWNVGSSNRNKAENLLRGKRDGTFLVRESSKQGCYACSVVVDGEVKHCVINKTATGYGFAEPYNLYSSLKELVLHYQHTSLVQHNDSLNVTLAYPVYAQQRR
How it was run: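 Recombinant PI3Kα (20 ng) phosphorylated 12.5 μg phosphatidylinositol with 10 μM ATP and 1 μCi ^32γ P […] in 10 mM Hepes pH 7.5, 50 mM MgCl2 for 20 min at 30° C. Lipids were extracted with MeOH/CHCl3, resolved by TLC, and labelled PI quantified by autoradiography densitometry; PI-103 served as standard.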

[16] = target: T2, mTOR (Homo sapiens, UniProt P42345); assay: mTOR activity assay (cell ELISA, Phospho-AKT Ser 473, A2780 cells); type: cell-based; conditions: for inhibition at 1 µM: read-out: % Inhibition of mTOR activity at 1 μM
T2 construct: endogenous in cells; host or cells: A2780 ovarian cell line (ATCC)
Description: Seed cells (Ovarian cell line A2780, ATCC) were plated in a 96 well microtitre plate at a density of 50,000 cells/cm^2 in appropriate complete cell culture medium. The cells were allowed to adhere for 18-24 hours. The cells were allowed to starve for 24 hours. […] Then the cells were stimulated with 20% FCS for 30 minutes. A typical assay would consist of a set of unstimulated cells, a set of stimulated cells and a set of cells treated with compounds of present invention and a set of cells treated with the stimulator. The medium was discarded. The cells were fixed with 100 μL of 3.7% formaldehyde for 15 minutes. The formaldehyde was discarded by inverting the plate and tapping it on a thick tissue paper layer to remove traces. The cells were washed and permeabilized with 200 μL PBS+Triton-X 100 solution (hereafter referred to as PBS-Triton, containing 0.1% triton-X 100 in 1×PBS) three times, incubating the cells each time for 5 minutes. 100 μL blocking solution (10% FCS in PBS-Triton) was added and incubated for 1 hour at 25° C. The blocking solution was discarded and cells were incubated with the primary antibody in PBS-Triton at a dilution of 1:500 for 1 hour at RT (25° C.). [The primary antibody is Phospho-AKT (Ser 473); Cell Signaling; Cat. No. 9271]. The primary antibody solution was discarded and the cells were washed 3 times with PBS-Triton solution and incubated with the HRP-conjugated secondary antibody in PBS-Triton at a dilution of 1:500 for 1 hour at RT (25° C.). The cells were washed 3 times with PBS-Triton followed by two washes with PBS (to remove traces of triton-X 100). The OPD (o-phenylene diamine dihydrochloride) substrate was prepared for detection of the signal by dissolving one tablet set (two tablets) of SigmaFast OPD (Sigma, Cat No. P9187) in 20 mL distilled water. It should be protected from light. 100 μL OPD solutions was added to the wells and the plate was incubated in the dark for 3-5 minutes (depending upon the development of the color). The reaction was stopped by adding 50 μL 2 N H2SO4. The absorbance was measured at 490 nm. The values were expressed in the treated samples, in terms of percentage or fold decrease in AKT phosphorylation with respect to the induced sample. PI-103 (Calbiochem, USA) was used as a standard.

[17] = tested on: HCT116; assay: Cytotoxicity assay (propidium iodide), HCT116; type: cell-based; conditions: Homo sapiens, HCT-116; HCT116 (C4b, colon); 48 hours
[18] = tested on: U 373; assay: Cytotoxicity assay (propidium iodide), U 373; type: cell-based; conditions: Homo sapiens, U373 MG; U 373 (C8a, glioblastoma); 48 hours
Description: as §4

[19] = tested on: U 87 MG; assay: Cytotoxicity assay (propidium iodide), U 87 MG; type: cell-based; conditions: Homo sapiens; U 87 MG (C8b, glioblastoma); 48 hours
Description: as §4

[20] = tested on: SKOV3; assay: Cytotoxicity assay (propidium iodide), SKOV3; type: cell-based; conditions: Homo sapiens, SK-OV-3; SKOV3 (C3b, ovarian); 48 hours
Description: as §4

[21] = tested on: OVCAR 3; assay: Cytotoxicity assay (propidium iodide), OVCAR 3; type: cell-based; conditions: Homo sapiens; OVCAR 3 (C3c, ovarian); 48 hours
Description: as §4

[22] = tested on: PANC 1; assay: Cytotoxicity assay (propidium iodide), PANC 1; type: cell-based; conditions: Homo sapiens; PANC 1 (C5a, pancreatic); 48 hours
Description: as §4

[23] = tested on: CAPAN1; assay: Cytotoxicity assay (propidium iodide), CAPAN1; type: cell-based; conditions: Homo sapiens, CAPAN-1; CAPAN1 (C5b, pancreatic); 48 hours
Description: as §4

Cc1cccc(S(=O)(=O)N(C)N=Cc2cnc3ccc(-c4cccnc4)cn23)c1 [Example 2]
IC50 [1]: 0.01 to 5 µM | IC50 [2]: 0.01 to 5 µM | IC50 [3]: 0.01 to 5 µM | IC50 [4]: > 5 µM | IC50 [5]: 0.01 to 5 µM | IC50 [6]: 5 to 10 µM | IC50 [7]: 0.001 to 5 µM | IC50 [8]: 0.01 to 5 µM

CN(N=Cc1cnc2ccc(-c3cccnc3)cn12)S(=O)(=O)c1ccccc1C#N [Example 9, 2-Cyano-N-methyl-N′-((6-(pyridine-3-yl)imidazo[1,2-a]pyridine-3-yl)methylene)benzenesulfonohydrazide]
IC50 ([1]; Homo sapiens): 0.01 to 5 µM | IC50 ([2]; Homo sapiens, NCI-H460): 0.01 to 5 µM | IC50 ([3]; Homo sapiens): 0.01 to 5 µM | IC50 [9]: 0.01 to 5 µM | IC50 [10]: 0.01 to 5 µM | IC50 ([6]; Homo sapiens): 5 to 10 µM | IC50 ([7]; Monocyte): 0.001 to 5 µM | IC50 [11]: 0.01 to 0.3 µM | IC50 [12]: 0.01 to 0.3 µM | IC50 [13]: 0.3 to 3 µM | IC50 [14]: 0.01 to 5 µM

CN(N=Cc1cnc2ccc(-c3cccnc3)cn12)S(=O)(=O)c1ccc(C#N)cc1 [Example 11, 4-Cyano-N-methyl-N′-((6-(pyridine-3-yl)imidazo[1,2-a]pyridine-3-yl)methylene)benzenesulfonohydrazide]
IC50 [15]: 0.01 to 0.5 µM | inhibition at 1 µM [16]: 30 to 50% | IC50 ([1]; Homo sapiens): > 5 µM | IC50 ([2]; Homo sapiens, NCI-H460): > 5 µM | IC50 ([3]; Homo sapiens): > 5 µM | IC50 [9]: > 5 µM | IC50 [10]: > 5 µM | IC50 ([7]; Monocyte): ≥ 5 µM | IC50 [14]: > 5 µM

Cc1ccc(S(=O)(=O)N(C)N=Cc2cnc3ccc(-c4cccnc4)cn23)cc1F [Example 20, 3-Fluoro-N, 4-dimethyl-N′-((6-(pyridine-3-yl)imidazo[1,2-a]pyridine-3-yl)methylene) benzenesulfonohydrazide]
IC50 [15]: 0.01 to 0.5 µM | inhibition at 1 µM [16]: 30 to 50% | IC50 ([1]; Homo sapiens): > 5 µM | IC50 ([2]; Homo sapiens, NCI-H460): > 5 µM | IC50 ([3]; Homo sapiens): > 5 µM | IC50 [17]: > 5 µM | IC50 [18]: > 5 µM | IC50 [19]: > 5 µM | IC50 ([6]; Homo sapiens): 0.1 to 5 µM | IC50 [14]: > 5 µM

CN(N=Cc1cnc2ccc(-c3cccnc3)cn12)S(=O)(=O)c1ccc(F)c(C#N)c1 [Example 24, 3-Cyano-4-fluoro-N-methyl-N′-((6-(pyridine-3-yl)imidazo[1,2-a]pyridine-3-yl)methylene) benzenesulfonohydrazide]
IC50 ([1]; Homo sapiens): 0.01 to 5 µM | IC50 ([2]; Homo sapiens, NCI-H460): 0.01 to 5 µM | IC50 ([3]; Homo sapiens): 0.01 to 5 µM | IC50 [17]: > 5 µM | IC50 [18]: 0.01 to 5 µM | IC50 [19]: 0.01 to 5 µM | IC50 ([6]; Homo sapiens): > 10 µM | IC50 [14]: 0.01 to 5 µM

CN(N=Cc1cnc2ccc(-c3cccnc3)cn12)S(=O)(=O)c1c(F)cc(F)cc1Br [Example 26, 2-Bromo-4,6-difluoro-N-methyl-N′-((6-(pyridine-3-yl)imidazo[1,2-a]pyridine-3-yl)methylene) benzenesulfonohydrazide]
IC50 [15]: 0.01 to 0.5 µM | inhibition at 10 µM ([16]; 10 μM): > 50% | IC50 ([1]; Homo sapiens): 0.01 to 5 µM | IC50 ([2]; Homo sapiens, NCI-H460): 0.01 to 5 µM | IC50 ([3]; Homo sapiens): 0.01 to 5 µM | IC50 [20]: 0.01 to 5 µM | IC50 [21]: 0.01 to 5 µM | IC50 [22]: 0.01 to 5 µM | IC50 [23]: 0.01 to 5 µM | IC50 ([6]; Homo sapiens): 0.1 to 5 µM | IC50 ([7]; Monocyte): 0.001 to 5 µM

Cc1ccc([N+](=O)[O-])cc1S(=O)(=O)N(C)N=Cc1cnc2ccc(-c3ccc(F)nc3)cn12 [Example 83, N′-((6-(6-fluoropyridine-3-yl)imidazo[1,2-a]pyridine-3-yl)methylene)-n, 2-dimethyl-5-nitrobenzenesulfonohydrazide]
IC50 [1]: > 5 µM | IC50 [2]: > 5 µM | IC50 [3]: 0.01 to 5 µM | IC50 [4]: > 5 µM | IC50 [5]: 0.01 to 5 µM | IC50 [8]: > 5 µM

Source: patent US8741932B2, “Imidazopyridine derivatives” (Piramal Enterprises Limited, priority 2009, dated 2014)
